Measurements: patent US11905284B2, “5,7-dihydro-pyrrolo-pyridine derivatives” (PFIZER INC., priority 2016, dated 2024)

Target: T1, Human M4 receptors (Homo sapiens, UniProt P08173)
T1 construct: expressed in transfected cells; host or cells: HEK293 cells with Promega GloSensor cAMP technology, stably expressing hM4
T1 sequence (P08173 1-479): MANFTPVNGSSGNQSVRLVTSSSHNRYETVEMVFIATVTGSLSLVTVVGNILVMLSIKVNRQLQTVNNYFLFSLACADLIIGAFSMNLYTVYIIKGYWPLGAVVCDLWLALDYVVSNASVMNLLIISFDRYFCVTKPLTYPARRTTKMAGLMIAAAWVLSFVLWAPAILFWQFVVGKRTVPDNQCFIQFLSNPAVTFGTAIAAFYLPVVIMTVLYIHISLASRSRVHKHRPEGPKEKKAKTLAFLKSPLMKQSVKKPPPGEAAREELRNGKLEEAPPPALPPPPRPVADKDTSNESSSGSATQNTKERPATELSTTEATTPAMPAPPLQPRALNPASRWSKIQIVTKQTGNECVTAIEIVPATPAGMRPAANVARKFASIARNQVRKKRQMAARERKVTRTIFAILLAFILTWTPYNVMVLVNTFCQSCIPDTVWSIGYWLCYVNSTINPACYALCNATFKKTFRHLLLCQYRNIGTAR
Test: M4 PAM cAMP assay (GloSensor)
Assay type: cell-based
Details: for M4 glosensor EC50 Mean Asymptote Maximum (%): Emax = maximum asymptote of fitted dose response curve; for M4 glosensor EC50 Mean Asymptote Maximum (%) / EC50: HEK293 GloSensor cells expressing hM4, with EC20 acetylcholine and isoproterenol, geometric mean of 2-4 determinations unless otherwise indicated; for Emax: HEK293, read-out: M4 glosensor EC50 Mean Asymptote Maximum (%)
Method: The M4 PAM binding affinity for the compounds of the present invention was determined utilizing the following biological assay(s):
The M4 cAMP assay was designed to determine the potency and efficacy of muscarinic positive allosteric modulators (PAMs). Human M4 receptors were stably expressed in Human embryonic kidney (HEK293) cells expressed with the Promega GloSensor™ cAMP technology.
HEK293 GloSensor cells expressing hM4 cells were cultured in growth media containing DMEM with 10% FBS, 1% Penicillin/Streptomycin, 500 μg/mL G418, 200 μg/mL Hygomycin B, and 1% Glutamax. […] Plates were incubated at 37 degrees C. and 5% CO2 for use after 24 hours.
Compound Preparation for Agonist Screen:
Each compound was tested at 10 concentrations in duplicate per experiment. Compound plates are spotted with 0.2 μL/well agonist at 400 times the final assay concentration. Positive and negative controls for the compound alone agonist response was 10 μM acetylcholine (Sigma #A2661) and DMSO, respectively. EC20 of acetylcholine was also used to define PAM activities.
Promega GloSensor™ reagent (Promega #E1291) had previously been aliquotted. […] Stock solution was mixed. Culture media in cell plates was discarded, then replaced with 40 μL/well pre-warmed equilibration media, then incubated in the dark at room temperature for 2 hours. During the incubation, stimulation media containing agonist and EC20 acetylcholine was prepared. […] Compounds are now 5 times the final assay concentration. The plate was mixed using a plate agitator. At the end of the 2 hour GloSensor™ incubation, add 10 μL of the CO2-independent media containing agonist, EC20 acetylcholine and isoproterenol to the cell plate. Cell plate was then incubated for 10 minutes at room temperature, and then read using an EnVision plate reader (Perkin Elmer).
Data was exported from the EnVision plate reader. The percent effect for each well was determined using the mean values for the positive and negative controls on each plate for each read, specifically 100*(compound−negative control)/(positive control−negative control). Dose response curves were fitted to the compound percent effect data using a 4-parameter logistic fit model. Data was reported as EC50 and Emax, with the Emax as the maximum asymptote of the fitted dose response curve.

SMILES | M4 glosensor EC50 Mean Asymptote Maximum (%) | EC50 [nM] | Emax [%]
COCc1cc(C)c2c(n1)CN(C(=O)CC1CN(c3ccnc(OC(F)F)c3)C1)C2 [Example 8, 2-{1-[2-(Difluoromethoxy)pyridin-4-yl]azetidin-3-yl}-1-[2-(methoxymethyl)-4-methyl-5,7-dihydro-6H-pyrrolo[3,4-b]pyridin-6-yl]ethanone] |  | 22.7 | 99.1
Cc1nc2c(c(C)c1C)CN(C(=O)CC1CN(c3cccnc3)C1)C2 [Example 23, 2-[1-(pyridin-3-yl)azetidin-3-yl]-1-(2,3,4-trimethyl-5,7-dihydro-6H-pyrrolo[3,4-b]pyridin-6-yl)ethanone] |  | 6.23 | 92.2
Cc1cc(C)c2c(n1)CN(C(=O)CC1CN(c3ccc(CO)cc3)C1)C2 [Example 71, 1-(2,4-dimethyl-5,7-dihydro-6H-pyrrolo[3,4-b]pyridin-6-yl)-2-{1-[4-(hydroxymethyl)phenyl]azetidin-3-yl}ethanone] |  | 195 | 90.5
Cc1cc(CO)nc2c1CN(C(=O)CC1CN(c3ccncn3)C1)C2 [Example 24, 1-[2-(hydroxymethyl)-4-methyl-5,7-dihydro-6H-pyrrolo[3,4-b]pyridin-6-yl]-2-[1-(pyrimidin-4-yl)azetidin-3-yl]ethanone] |  | 31 | 93.8
COc1nc2c(c(C)c1Cl)CN(C(=O)CC1CN(c3cncnc3)C1)C2 [Example 26, 1-(3-chloro-2-methoxy-4-methyl-5,7-dihydro-6H-pyrrolo[3,4-b]pyridin-6-yl)-2-[1-(pyrimidin-5-yl)azetidin-3-yl]ethanone] |  | 13.9 | 117
Cc1c(C(F)F)nc2c(c1C)CN(C(=O)CC1CN(c3ccnc(C(F)F)c3)C1)C2 [Example 53, 1-[2-(difluoromethyl)-3,4-dimethyl-5,7-dihydro-6H-pyrrolo[3,4-b]pyridin-6-yl]-2-{1-[2-(difluoromethyl)pyridin-4-yl]azetidin-3-yl}ethanone] |  | 38.6 | 104
Cc1nc2c(c(C)c1C)CN(C(=O)OC1CN(c3nncs3)C1)C2 [Example 65, 1-(1,3,4-thiadiazol-2-yl)azetidin-3-yl 2,3,4-trimethyl-5,7-dihydro-6H-pyrrolo[3,4-b]pyridine-6-carboxylate] |  | 62.6 | 88.2
Cc1c(C(F)F)nc2c(c1C)CN(C(=O)OC1CN(c3ncns3)C1)C2 [Example 63, 1-(1,2,4-thiadiazol-5-yl)azetidin-3-yl 2-(difluoromethyl)-3,4-dimethyl-5,7-dihydro-6H-pyrrolo[3,4-b]pyridine-6-carboxylate] |  | 42.4 | 51.8
Cc1nc2c(c(C)c1C)CN(C(=O)C[C@@H]1C[C@H]1c1cccnc1)C2 (single isomer, unassigned) [Example 37, 2-[trans-2-(pyridin-3-yl)cyclopropyl]-1-(2,3,4-trimethyl-5,7-dihydro-6H-pyrrolo[3,4-b]pyridin-6-yl)ethanone] | 85.8 | 1790 | 
COCc1nc2c(c(C)c1Cl)CN(C(=O)CC1CN(c3ccnc(C(F)F)c3)C1)C2 [Example 47, 1-[3-chloro-2-(methoxymethyl)-4-methyl-5,7-dihydro-6H-pyrrolo[3,4-b]pyridin-6-yl]-2-{1-[2-(difluoromethyl)pyridin-4-yl]azetidin-3-yl}ethanone] |  | 2.19 | 110
Cc1c(C(F)F)nc2c(c1C)CN(C(=O)CC1CN(c3ccnc(OC(F)F)c3)C1)C2 [Example 10, 2-{1-[2-(Difluoromethoxy)pyridin-4-yl]azetidin-3-yl}-1-[2-(difluoromethyl)-3,4-dimethyl-5,7-dihydro-6H-pyrrolo[3,4-b]pyridin-6-yl]ethanone] |  | 28.9 | 99.5
Cc1cc(CO)nc2c1CN(C(=O)CC1CN(c3ccnc(C(F)(F)F)c3)C1)C2 [Example 33, 1-[2-(hydroxymethyl)-4-methyl-5,7-dihydro-6H-pyrrolo[3,4-b]pyridin-6-yl]-2-{1-[2-(trifluoromethyl)pyridin-4-yl]azetidin-3-yl}ethanone] |  | 14 | 100
Cc1cc(C)c2c(n1)CN(C(=O)C[C@H]1C[C@@H]1c1ccccc1)C2 (racemic) [Example 77, 1-(2,4-dimethyl-5,7-dihydro-6H-pyrrolo[3,4-b]pyridin-6-yl)-2-[trans-2-phenylcyclopropyl]ethanone] |  | 2880 | 176
Cc1nc2c(c(C)c1Cl)CN(C(=O)CC1CN(c3cccnc3)C1)C2 [Example 13, 1-(3-Chloro-2,4-dimethyl-5,7-dihydro-6H-pyrrolo[3,4-b]pyridin-6-yl)-2-[1-(pyridin-3-yl)azetidin-3-yl]ethanone] |  | 2.04 | 101
COCc1nc2c(c(C)c1Cl)CN(C(=O)CC1CN(c3ccc(F)nc3)C1)C2 [Example 49, 1-[3-chloro-2-(methoxymethyl)-4-methyl-5,7-dihydro-6H-pyrrolo[3,4-b]pyridin-6-yl]-2-[1-(6-fluoropyridin-3-yl)azetidin-3-yl]ethanone] |  | 11.2 | 101

Results, then the molecule that gave them:

M4 glosensor EC50 Mean Asymptote Maximum (%) | EC50 [nM] | Emax [%] | SMILES
111 | 15.9 |  | Cc1nc2c(c(C)c1C)CN(C(=O)C[C@@H]1C[C@H]1c1cccnc1)C2 (single isomer, unassigned) [Example 38, 2-[trans-2-(pyridin-3-yl)cyclopropyl]-1-(2,3,4-trimethyl-5,7-dihydro-6H-pyrrolo[3,4-b]pyridin-6-yl)ethanone]
 | 18 | 86 | Cc1cc(C(F)F)nc2c1CN(C(=O)CC1CN(c3cncnc3)C1)C2 [Example 34, 1-[2-(difluoromethyl)-4-methyl-5,7-dihydro-6H-pyrrolo[3,4-b]pyridin-6-yl]-2-[1-(pyrimidin-5-yl)azetidin-3-yl]ethanone]
 | 25.7 | 78.7 | Cc1cc(C(F)F)nc2c1CN(C(=O)CC1CN(c3ccnc(OC(F)F)c3)C1)C2 [Example 25, 2-{1-[2-(difluoromethoxy)pyridin-4-yl]azetidin-3-yl}-1-[2-(difluoromethyl)-4-methyl-5,7-dihydro-6H-pyrrolo[3,4-b]pyridin-6-yl]ethanone]
 | 52.3 | 163 | COCc1nc2c(c(C)c1Cl)CN(C(=O)OC1CN(c3cccnc3)C1)C2 [Example 66, 1-(pyridin-3-yl)azetidin-3-yl 3-chloro-2-(methoxymethyl)-4-methyl-5,7-dihydro-6H-pyrrolo[3,4-b]pyridine-6-carboxylate]
 | 485 | 99.4 | Cc1cc(C)c2c(n1)CN(C(=O)CC1CN(c3ccc(C4(C)COC4)cc3)C1)C2 [Example 68, 1-(2,4-dimethyl-5,7-dihydro-6H-pyrrolo[3,4-b]pyridin-6-yl)-2-{1-[4-(3-methyloxetan-3-yl)phenyl]azetidin-3-yl}ethanone]
 | 2.56 | 87.9 | Cc1nc2c(c(C)c1C)CN(C(=O)CC1CN(c3ccncn3)C1)C2 [Example 35, 2-[1-(pyrimidin-4-yl)azetidin-3-yl]-1-(2,3,4-trimethyl-5,7-dihydro-6H-pyrrolo[3,4-b]pyridin-6-yl)ethanone]
 | 21.6 | 116 | COc1nc2c(c(C)c1C)CN(C(=O)CC1CN(c3cccnc3)C1)C2 [Example 28, 1-(2-methoxy-3,4-dimethyl-5,7-dihydro-6H-pyrrolo[3,4-b]pyridin-6-yl)-2-[1-(pyridin-3-yl)azetidin-3-yl]ethanone]
 | 5.05 | 93.9 | Cc1cc(C)c2c(n1)CN(C(=O)CC1CN(c3cc(NC(C)C)ncn3)C1)C2 [Example 42, 1-(2,4-dimethyl-5,7-dihydro-6H-pyrrolo[3,4-b]pyridin-6-yl)-2-{1-[6-(propan-2-ylamino)pyrimidin-4-yl]azetidin-3-yl}ethanone]
 | 7.1 | 119 | Cc1nc2c(c(C)c1Cl)CN(C(=O)CC1CN(c3ccnc(C(F)F)c3)C1)C2 [Example 12, 1-(3-Chloro-2,4-dimethyl-5,7-dihydro-6H-pyrrolo[3,4-b]pyridin-6-yl)-2-{1-[2-(difluoromethyl)pyridin-4-yl]azetidin-3-yl}ethanone]
